# Laboratory results: patent US20240148723A1, “MYCOBACTERIUM TUBERCULOSIS COMPOSITIONS AND METHODS” (priority 2021, published 2024)
# System: M. tuberculosis
# Assay type: cell-based, Mycobacterium tuberculosis
# Details: pH 6.8
Structure (SMILES),MIC in the media 7H9,MIC in the media L-Ala,MIC in the media SBA,MIC in the media SLac
O=[N+]([O-])c1ccc(Sc2cccc[n+]2[O-])c2nonc12 [compound 228155],≥ 0.93 µg/mL,0.93 µg/mL,0.93 µg/mL,0.93 µg/mL
Cn1ccc(=Nc2ccc(NC(=O)c3ccc(N=c4ccn(C)c5ccc([N+](=O)[O-])cc45)cc3)cc2)cc1 [compound 260594],≥ 0.81 µg/mL,0.81 µg/mL,1.61 µg/mL,0.40 µg/mL
CSc1ccc2c(c1)C(N1CCN(C)CC1)Cc1ccccc1S2.O=C(O)/C=C\C(=O)O (centres unmarked) [compound 281816],≥ 11.82 µg/mL,2.95 µg/mL,2.95 µg/mL,2.95 µg/mL
O=C1c2cccc3cc([N+](=O)[O-])cc(c23)C(=O)N1CCN1CCCC1 [compound 300289],≥ 8.48 µg/mL,4.24 µg/mL,2.12 µg/mL,2.12 µg/mL
c1ccc2c(c1)Sc1ccccc1N2CC1CN2CCC1CC2 (centres unmarked) [compound 303612],≥ 16.13 µg/mL,8.06 µg/mL,8.06 µg/mL,4.03 µg/mL
OC(c1cc(-c2ccc(C(F)(F)F)cc2)nc(C(F)(F)F)c1)C1CCCCN1 (centres unmarked) [compound 305798],≥ 10.11 µg/mL,1.25 µg/mL,2.53 µg/mL,2.53 µg/mL
O=[N+]([O-])c1cnc(Sc2ccncn2)s1 [compound 311727],≥ 24.03 µg/mL,0.77 µg/mL,0.77 µg/mL,0.77 µg/mL
Cc1ccc(NCCN(C)C)c2c(=O)c3cc(O)ccc3sc12.I [compound 317003],≥ 5.70 µg/mL,2.85 µg/mL,2.85 µg/mL,1.46 µg/mL
COc1cccc2[nH]c(-c3ccccn3)nc12 [compound 320656],≥ 45.06 µg/mL,5.63 µg/mL,11.27 µg/mL,1.41 µg/mL
CS(=O)(=O)O.OC(c1cc(C(F)(F)F)nc2c(Cl)cc(Cl)cc12)C1CCCCN1 (centres unmarked) [compound 322661],≥ 11.88 µg/mL,2.97 µg/mL,1.52 µg/mL,2.97 µg/mL
NC1(N2SC(S)=C3CCCC=C32)CCCCC1 [compound 327444],≥ 26.84 µg/mL,6.71 µg/mL,13.42 µg/mL,3.36 µg/mL
Cc1cc(C(C#N)c2ccc(Cl)cc2)c(Cl)cc1NC(=O)c1cc(I)cc(I)c1O (centres unmarked) [compound 335306],≥ 66.31 µg/mL,4.14 µg/mL,4.14 µg/mL,4.14 µg/mL
Oc1c(N=Nc2nn[nH]n2)ccc2ccccc12 [compound 338106],≥ 3.00 µg/mL,1.50 µg/mL,1.50 µg/mL,0.77 µg/mL
CC[C@@]1([C@@H]2O[C@@H]([C@H]3O[C@@](O)(CO)[C@H](C)C[C@@H]3C)C[C@@H]2C)CC[C@H]([C@]2(C)CC[C@]3(C[C@H](O)[C@@H](C)[C@@H]([C@@H](C)[C@@H](OC)[C@H](C)C(=O)[O-])O3)O2)O1.[Na+] [compound 343257],≥ 4.33 µg/mL,4.33 µg/mL,4.33 µg/mL,8.66 µg/mL
O=[N+]([O-])c1oc2ccc3ccccc3c2c1CCO [compound 373981],≥ 0.82 µg/mL,0.82 µg/mL,0.82 µg/mL,0.82 µg/mL
O=C(Nc1ccccc1)c1cc(Cl)ccc1O [compound 402600],≥ 24.77 µg/mL,1.55 µg/mL,1.55 µg/mL,0.79 µg/mL
CCCOC(=O)c1ccc([N+](=O)[O-])cc1 [compound 406847],≥ 83.68 µg/mL,5.23 µg/mL,10.46 µg/mL,5.23 µg/mL
O=C(CCc1ccc(O)cc1)c1c(O)cc(O)cc1O [compound 407292],≥ 109.72 µg/mL,1.71 µg/mL,3.43 µg/mL,1.71 µg/mL
Cc1nc(C(=O)N=C(N)N)c(N)nc1-c1ccccc1 [compound 614911],≥ 108.12 µg/mL,13.52 µg/mL,27.03 µg/mL,27.03 µg/mL
Cl.O=C(c1ccc(OCCN2CCCCC2)cc1)c1c(-c2ccc(O)cc2)sc2cc(O)ccc12 [compound 747974],≥ 47.36 µg/mL,2.96 µg/mL,2.96 µg/mL,2.96 µg/mL
O=C(c1ccc(F)c(F)c1Nc1ccc(I)cc1F)N1CC(O)(C2CCCCN2)C1 (centres unmarked) [compound 768068],≥ 26.57 µg/mL,13.28 µg/mL,3.32 µg/mL,3.32 µg/mL
CN1CCN(c2ccc(C(=O)Nc3n[nH]c4ccc(Cc5cc(F)cc(F)c5)cc34)c(NC3CCOCC3)c2)CC1 [compound 774769],≥ 28.03 µg/mL,7.01 µg/mL,3.50 µg/mL,3.50 µg/mL
C=CC(=O)Nc1cc(Nc2nccc(-c3cn(C)c4ccccc34)n2)c(OC)cc1N(C)CCN(C)C [compound 779217],≥ 12.49 µg/mL,3.12 µg/mL,3.12 µg/mL,1.60 µg/mL
